# Measurements: US10669240B2, “5-substituted indazole-3-carboxamides and preparation and use thereof” (Samumed, LLC, priority 2014, dated 2020)
# Legend:
# Format in all cases: cell-based
# DYRK1A = DYRK1A (Homo sapiens (Human), UniProt Q13627); experiment: DYRK1A activity Tau assay: pSer396 Tau in SH-SY5Y cells by ELISA / western blot; conditions: overnight (16-18 h) exposure
# From the text: In another example, in vitro assays for DYRK1A biological activity may be used, e.g. regulation of microtubule-associated protein tau (MAPT/Tau) phosphorylation in neuronal cell line such as the human SH-SY5Y neuroblastoma cell line. Assays for DYRK1a-regulated level of phosphorylation can include monitoring levels of basal pSer396 Tau, which can be measured, for example, by serial dilutions of a candidate inhibitor composition using a ten micromolar top concentration and detected by ELISA or Western Blotting. An exemplary assay for DYRK-1a-regulated phosphorylation uses the SH-SY5Y cells cultured in a 96 well plate format for a period of time sufficient to stabilize microtubules and Tau phosphorylation, usually at least 2 days, then treated with a 1/3 serial dilution of compounds overnight and lysed. The cell lysate is resolved by SDS PAGE, then transferred to nitrocellulose and probed with an antibody specific for pSer396 Tau.
# In a further example, the activity of a candidate compound can be measured by ELISA by adding the lysate mentioned above onto total Tau-coated plates and detected with a specific pSer396 antibody.
# [1] = tested on: Wnt activity (Wnt-responsive SP5 promoter luciferase reporter in SW480 cells); experiment: Wnt activity reporter assay: SW480 cells with SP5 promoter-driven firefly luciferase; conditions: Homo sapiens, 24 h after compound addition, read-out: Wnt inhibition
# Outline: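 SW480 cells (APC-mutant colon line) stably carrying a lentiviral SP5-promoter (eight TCF/LEF sites) firefly luciferase reporter were plated at ~10,000 cells/well. Luminescence was normalized to DMSO-only cells and used for IC50.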
# [2] = tested on: primary human fibroblasts derived from IPF patients (LL29 cells); experiment: Inhibition of the fibrotic process: αSMA staining in TGF-β1 treated LL29 fibroblasts; conditions: Fibroblast, 72 h, TGF-β1 10 ng/ml, 3 days, read-out: Inhibition of fibrosis IC50
# Protocol: The above synthesized compounds were screened using primary human fibroblasts (derived from IPF patients) treated with TGF-β1 to determine their ability to inhibit the fibrotic process.
# Each compound was dissolved in DMSO as a 10 mM stock and used to prepare compound source plates. […] LL29 cells were plated at 1,000 cells/well in 50 μl/well serum free F12 medium. […] Wells untreated with TGF-β1 were used as control for normalization and calculating IC50 values. Cells were incubated at 37° C. and 5% CO2 for 3 days. Cells were fixed using 4% formaldehyde (Electron Microscopy Sciences), washed 3 times with PBS followed by blocking and permeabilization using 3% Bovine Serum Albumin (BSA; Sigma) and 0.3% Triton X-100 (Sigma) in PBS. […] The IC50 values are reported.
# [3] = tested on: primary human mesenchymal stem cells (hMSCs); experiment: Chondrogenesis assay in primary human mesenchymal stem cells, nodule count vs TGF-β3 positive control; conditions: 6 days
# From the text: The above synthesized compounds were screened using primary human mesenchymal stem cells (hMSCs) to determine their ability to induce chondrogenesis (process by which cartilage is developed).
# Human Mesenchymal Stem Cell Culture:
# Primary human mesenchymal stem cells (hMSCs) were purchased from Lonza (Walkersville, Md.) and expanded in Mesenchymal Stem Cell Growth Media (Lonza). Cells between passage 3 and 6 were used for the experiments.
# Number of nodules in each well was normalized to the average of 3 DMSO treated wells on the same plate using Excel (Microsoft Inc.). The normalized averages (fold change over DMSO) of 3 replicate wells for each compound concentration were calculated. Due to solubility limitations of some of the compounds, curve fitting was incomplete leading to inaccurate EC50 determinations.
# Using TGF-β3 as a positive control, the concentration of test compounds required to induce equivalent levels of chondrogenesis is reported. In addition, the maximum activity of each compound and the respective dose that each compound reached maximum chondrogenesis activity is reported.
smiles,measurement,setting,value
"C[C@@H]1CN(c2ccc(NC(=O)c3n[nH]c4ccc(-c5cncc(CN6CCCCC6)c5)cc34)cn2)C[C@H](C)O1 [Compound 1141, N-(6-((2S,6R)-2,6-dimethylmorpholino)pyridin-3-yl)-5-(5-(piperidin-1-ylmethyl)pyridin-3-yl)-1H-indazole-3-carboxamide]",EC50,DYRK1A,1 nM
same,IC50,[1],3 nM
same,IC50,[2],468 nM
same,Conc (nM) of Max. activity,"[3]; 6-point dose-response 2700 nM to 10 nM, dose at which maximum chondrogenesis activity was reached",2700 nM
same,Conc (nM) of 100% TGF-β3 activity,[3]; concentration required to induce chondrogenesis equivalent to TGF-β3 (10 ng/mL),2700 nM
same,Max. Activity as % TGF-β3 activity,[3]; relative to TGF-β3 (10 ng/mL) positive control,129%
